For assay [1], the target named is T1, rat homomeric P2X3 receptors (Rattus norvegicus, UniProt P49654).
T1 construct: transfected with rat full-length P2X3 cDNA subcloned into pIRES2-EGFP; expressed in transfected cells; host or cells: HEK293T
T1 sequence (P49654 1-397): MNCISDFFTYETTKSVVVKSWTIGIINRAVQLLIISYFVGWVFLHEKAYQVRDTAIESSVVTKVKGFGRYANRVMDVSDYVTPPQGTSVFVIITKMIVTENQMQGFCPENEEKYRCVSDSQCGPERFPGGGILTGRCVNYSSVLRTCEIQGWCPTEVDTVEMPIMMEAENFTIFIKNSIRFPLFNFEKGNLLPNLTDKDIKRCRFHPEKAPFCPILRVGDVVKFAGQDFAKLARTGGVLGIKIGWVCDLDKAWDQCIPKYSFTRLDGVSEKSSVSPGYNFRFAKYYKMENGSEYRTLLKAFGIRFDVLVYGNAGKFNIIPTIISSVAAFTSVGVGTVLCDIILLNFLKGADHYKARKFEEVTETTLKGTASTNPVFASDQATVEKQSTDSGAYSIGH
Nature of the assay: Whole-cell patch clamp on HEK cells expressing rat homomeric P2X3 receptors. It counts as cell-based. The note with it: for depression of P2X3 current: 1 μM; for nH of the activation dose-response curve: activation of P2X3 receptors. As for the experimental part:
Rat trigeminal (TG), nodose (NG) or dorsal root ganglion (DRG) neurons in culture were prepared as described previously (Sokolova et al., 2001; Simonetti et al., 2006). Neurons were plated on poly-L-lysine (0.2 mg/mL)-coated Petri dishes and cultured for 1 to 2 days under an atmosphere containing 5% CO2. Cells were used within 2 days of plating when they lacked processes. HEK293T cells were prepared as reported previously (Fabbretti et al., 2004; Sokolova et al., 2004) and transfected with rat full-length P2X3 cDNA subcloned into pIRES2-EGFP (Clontech, Mountain View, Calif., USA).
Trigeminal, nodose, DRG neurons or HEK cells were recorded in the whole-cell configuration while being continuously superfused (at 2 mL/min) with control solution containing (in mM): 152 NaCl, 5 KCl, 1 MgCl2, 2 CaCl2, 10 glucose, and 10 HEPES; pH was adjusted to 7.4 with NaOH and osmolarity was adjusted to 320 mOsM with glucose. […] Responses to selective P2X3 receptor agonist α,β-methylene-ATP (α,β-meATP; resistant to ectoATPase hydrolysis, Sigma-Aldrich) were measured using an EPC-9 amplifier and HEKA Patch Master software (HEKA Electronik, Germany). Cells were voltage-clamped at −70 mV. In most cells, series resistance was compensated by 80%. To determine half effective concentration of agonist (EC50), dose-response curves for α,β-meATP were constructed by applying different agonist doses to the same cells and fitting them with a logistic equation (Origin 8.0, Microcal, Northampton, Mass.).
Agonists and antagonists were applied, usually for 2 sec, via a rapid superfusion system (Rapid Solution Changer RSC-200; BioLogic Science Instruments, Grenoble, France) placed 100 to 150 μm near the cell. The time for the solution exchange across the cell was approximately 30 ms, as judged with liquid junction potential measurements. All chemicals, including enzymes for cell culture, were from Sigma (St. Louis, Mo.). Culture media were obtained from Invitrogen (Milan, Italy).
The peak amplitudes of the responses were measured using HEKA Patch Master software. For each agonist, dose-response plots were constructed by normalizing data with respect to the maximum response. All data are presented as mean±S.E.M. (n=the number of cells) with statistical significance assessed by paired t-test (for parametric data) or Mann-Whitney rank sum test (for non-parametric data). Best fits of data with a sigmoid function were compared with respective control fits using Origin 8.0 software. A value of P<0.05 was accepted as indicative of statistically significant difference.
The inhibitory (suppressive) potencies of AppNHppA and AppCH2ppA via high affinity desensitization (HAD) were evaluated. The inventors applied both synthetic analogues in different experiments during rhythmic 2 s long (2 […]) activations of P2X3 receptors using 10 μM α,β-meATP (for protocol see FIG. 2 top).

A further assay has as its system rats. Nature of the assay: Hargreaves plantar test under complete Freund adjuvant-induced thermal hyperalgesia. Type of assay: in vivo, rat. The conditions noted are these: for antinociceptive effect on CFA-induced thermal hyperalgesia (paw withdrawal latency): injection (100 μL) into the inflamed hind paw. As for the experimental part:
FIG. 8. […] A. Time-course of the effects of 1 and 20 μM (100 μL) of AppCH2ppA and AppNHppA on the paw withdrawal latency (PWL). B. Bar-graphs of the effects of AppCH2ppA and AppNHppA on the integral PWL.
FIG. 10. […] A. Time-course of the effects of i.t. AppCH2ppA on complete Freund adjuvant-induced thermal hyperalgesia (Hargreaves plantar test). B. Bar-graphs of the effects of i.t. AppCH2ppA on rat PWL.

SMILES strings stand for the structures. Entries after “also recorded” stand apart in the source; their conditions may differ. Read-outs that look alike come from different tables or passages of the source.

For the molecule `Nc1ncnc2c1ncn2[C@@H]1O[C@H](COP(=O)(O)OP(=O)(O)CP(=O)(O)OP(=O)(O)OC[C@H]2O[C@@H](n3cnc4c(N)ncnc43)C(O)C2O)C(O)C1O` (stereo in doubt) [AppCH2ppA], the “depression of P2X3 current” value is recorded as 81±3% in assay [1] (α,β-meATP pulses every 30 s (high rate)) and 61.3±5% in assay [1] (α,β-meATP pulses every 2 min (low rate)). The “nH of the activation dose-response curve” value in assay [1] is reported as 2.27±0.56. Also, the EC50 (usually the concentration needed to bring the measured effect to its halfway point) in assay [1] (agonist applied for 2 s, read-out: EC50 for activation of P2X3 mediated currents) worked out at 9.3 ± 1.7 µM. Further, in assay [1] (test pulses of 10 μM α,β-meATP every 2 min, measured 6 min after drug application, read-out: IC50 for inhibition of P2X3 mediated currents), the IC50 (commonly the concentration at which inhibition is half-maximal) was found to be 0.55 ± 0.2 µM. Besides, the “antinociceptive effect on CFA-induced thermal hyperalgesia (paw withdrawal latency)” value with rats is recorded as “antinociceptive effect was observed”. Further, the antinociceptive effect with rats (intra-thecal administration, 20 μM) turned out to be 27%; with rats (intraplantar administration), 53%. Also, in the assay on rats (intrathecal 20 μM, 100 μL), the “antinociceptive effect of intrathecal compared with intraplantar injection” value was “weaker delayed antinociceptive effect; also recorded: less pronounced analgesia”. Moreover, the “effect of local peripheral intraplantar injection relative to intrathecal injection” value with rats (rat, in vivo) is recorded as “two-fold higher effect”.
With `Nc1ncnc2c1ncn2[C@@H]1O[C@H](COP(=O)(O)OP(=O)(O)NP(=O)(O)OP(=O)(O)OC[C@H]2O[C@@H](n3cnc4c(N)ncnc43)C(O)C2O)C(O)C1O` (stereo in doubt) [AppNHppA], in assay [1], the response was half-maximal at 41.6 ± 1.3 µM (EC50), the IC50 was found to be 0.2 ± 0.04 µM and the “nH of the activation dose-response curve” value was found to be 1.58±0.05. In addition, the “amplitude of the following α,β-meATP response” value in assay [1] (10 nM applied for 6 min) is recorded as “almost unchanged”. The “inhibition (suppression) of test responses” value in assay [1] (3 μM) is on record as “strong (almost full) inhibition”. In assay [1] (0.1 or 1 μM), the “induction of membrane currents” value is reported as “not to induce membrane currents”. Also, in assay [1] (10 or 100 μM), the “induction of membrane currents” value was “small and slowly desensitizing currents”. For the same molecule, in assay [1] (HEK293, read-out: test responses reduced to (% of control)), the remaining activity at 0.1 µM was 38.2 ± 8.5%. Further, the “current response as % of the response induced by 10 μM of α,β-meATP” value in assay [1] (saturating 1 mM concentration, same cell) is 41.2±13%. For the same molecule, the “antinociceptive effect on CFA-induced thermal hyperalgesia (paw withdrawal latency)” value in the assay with rats was “antinociceptive effect was observed”.

Values taken from patent US20150119352A1, “DINUCELOSIDE POLYPHOSPHATES FOR THE TREATMENT OF PAIN” (GlobalAcorn Ltd., priority 2012, published 2015).
